Laboratory results published in patent publication US20180036289A1 (Gilead Sciences, Inc., priority 2016, published 2018).

Key:
Test in all cases: Cell proliferation assay (ATPlite), drug with vs without cobicistat
Assay type in all cases: cell-based
T98G = T98G cell line; 120 hours incubation
Procedure: (§1) All cell lines were obtained from the American Type Culture Collection (ATCC) Manassas, Va. (US). Master and working cell banks (MCB and WCB) were prepared by subculturing in ATCC-recommended media and freezing protocols (www.atcc.org). Cell line stocks for the assays were prepared from the WCB. The MCB, WCBs and assay stocks were prepared within respectively 3, 6 and 9 passages of the ATCC vial.
(§2) Solid powders of reference compounds were weighed on a calibrated balance and dissolved in 100% DMSO. DMSO samples were stored at room temperature. At the day of the experiment, the compound stock was diluted in 3.16 fold steps in 100% DMSO to obtain a 9-point dilution series. This was further diluted 31.6 times in 20 mM sterile Hepes buffer pH 7.4. A volume of 5 μl was transferred to the cells to generate a test concentration range from 3.16×10^−5M to 3.16×10^−9 M in duplicate. The final DMSO concentration during incubation was […] in all wells.
(§3) An assay stock was thawed and diluted in its ATCC recommended medium and dispensed in a 384-well plate, depending on the cell line used, at a concentration of 200-3200 cells per well in 45 μl medium. For each used cell line the optimal cell density is used. The margins of the plate were filled with phosphate-buffered saline. Plated cells were incubated in a humidified atmosphere of 5% CO2 at 37° C. After 24 hours, 5 μl of compound dilution was added and plates were further incubated for another 120 hours. After 120 hours, 25 μl of ATPlite 1Step™ (PerkinElmer) solution was added to each well, and subsequently shaken for 2 minutes. After 10 minutes of incubation in the dark, the luminescence was recorded on an Envision multimode reader (PerkinElmer).
(§4) IC50s were calculated by non-linear regression using IDBS XLfit 5. The percentage growth after 120 h (%-growth) was calculated as follows: 100%×(luminescencet=120h/luminescenceuntreated,t=120h). This was fitted to the ^10log compound concentration (conc) by a 4-parameter logistics curve: %−growth=bottom+(top−bottom)/(1+10^(log IC50-conc)*hill)), where hill is the Hill-coefficient, and bottom and top the asymptotic minimum and maximum cell growth that the compound allows in that assay.

OVCAR-3 = OVCAR-3 cell line; 120 hours incubation
Procedure: as §1, §2, §3, §4

MOLT-4 = MOLT-4 cell line; 120 hours incubation
Procedure: as §1, §2, §3, §4

A-172 = A-172 cell line; 120 hours incubation
Procedure: as §1, §2, §3, §4

J82 = J82 cell line; 120 hours incubation
Procedure: as §1, §2, §3, §4

SW480 = SW480 cell line; 120 hours incubation
Procedure: as §1, §2, §3, §4

AsPC-1 = AsPC-1 cell line; 120 hours incubation
Procedure: as §1, §2, §3, §4

MIA PaCa-2 = MIA PaCa-2 cell line; 120 hours incubation
Procedure: as §1, §2, §3, §4

DLD-1 = DLD-1 cell line; 120 hours incubation
Procedure: as §1, §2, §3, §4

HCT 116 = HCT 116 cell line; 120 hours incubation
Procedure: as §1, §2, §3, §4

FaDu = FaDu cell line; 120 hours incubation
Procedure: as §1, §2, §3, §4

PA-1 = PA-1 cell line; 120 hours incubation
Procedure: as §1, §2, §3, §4

HCT-15 = HCT-15 cell line; 120 hours incubation
Procedure: as §1, §2, §3, §4

U-87 MG = U-87 MG cell line; 120 hours incubation
Procedure: as §1, §2, §3, §4

U-2 OS = U-2 OS cell line; 120 hours incubation
Procedure: as §1, §2, §3, §4

MG-63 = MG-63 cell line; 120 hours incubation
Procedure: as §1, §2, §3, §4

BT-549 = BT-549 cell line; 120 hours incubation
Procedure: as §1, §2, §3, §4

769-P = 769-P cell line; 120 hours incubation
Procedure: as §1, §2, §3, §4

A-204 = A-204 cell line; 120 hours incubation
Procedure: as §1, §2, §3, §4

SK-N-FI = SK-N-FI cell line; 120 hours incubation
Procedure: as §1, §2, §3, §4

C-33 A = C-33 A cell line; 120 hours incubation
Procedure: as §1, §2, §3, §4

BT-20 = BT-20 cell line; 120 hours incubation
Procedure: as §1, §2, §3, §4

SHP-77 = SHP-77 cell line; 120 hours incubation
Procedure: as §1, §2, §3, §4

Hs 578T = Hs 578T cell line; 120 hours incubation
Procedure: as §1, §2, §3, §4

SJCRH30 = SJCRH30 cell line; 120 hours incubation
Procedure: as §1, §2, §3, §4

SW48 = SW48 cell line; 120 hours incubation
Procedure: as §1, §2, §3, §4

SW948 = SW948 cell line; 120 hours incubation
Procedure: as §1, §2, §3, §4

Daoy = Daoy cell line; 120 hours incubation
Procedure: as §1, §2, §3, §4

COLO 205 = COLO 205 cell line; 120 hours incubation
Procedure: as §1, §2, §3, §4

A388 = A388 cell line; 120 hours incubation
Procedure: as §1, §2, §3, §4

| SMILES | Fold change in IC50 (IC50 [Drug + Cobicistat]/IC50 [Drug]) (T98G) | Fold change in IC50 (IC50 [Drug + Cobicistat]/IC50 [Drug]) (OVCAR-3) | Fold change in IC50 (IC50 [Drug + Cobicistat]/IC50 [Drug]) (MOLT-4) | Fold change in IC50 (IC50 [Drug + Cobicistat]/IC50 [Drug]) (A-172) | Fold change in IC50 (IC50 [Drug + Cobicistat]/IC50 [Drug]) (J82) | Fold change in IC50 (IC50 [Drug + Cobicistat]/IC50 [Drug]) (SW480) | Fold change in IC50 (IC50 [Drug + Cobicistat]/IC50 [Drug]) (AsPC-1) | Fold change in IC50 (IC50 [Drug + Cobicistat]/IC50 [Drug]) (MIA PaCa-2) | Fold change in IC50 (IC50 [Drug + Cobicistat]/IC50 [Drug]) (DLD-1) | Fold change in IC50 (IC50 [Drug + Cobicistat]/IC50 [Drug]) (HCT 116) | Fold change in IC50 (IC50 [Drug + Cobicistat]/IC50 [Drug]) (FaDu) | Fold change in IC50 (IC50 [Drug + Cobicistat]/IC50 [Drug]) (PA-1) | Fold change in IC50 (IC50 [Drug + Cobicistat]/IC50 [Drug]) (HCT-15) | Fold change in IC50 (IC50 [Drug + Cobicistat]/IC50 [Drug]) (U-87 MG) | Fold change in IC50 (IC50 [Drug + Cobicistat]/IC50 [Drug]) (U-2 OS) | Fold change in IC50 (IC50 [Drug + Cobicistat]/IC50 [Drug]) (MG-63) | Fold change in IC50 (IC50 [Drug + Cobicistat]/IC50 [Drug]) (BT-549) | Fold change in IC50 (IC50 [Drug + Cobicistat]/IC50 [Drug]) (769-P) | Fold change in IC50 (IC50 [Drug + Cobicistat]/IC50 [Drug]) (A-204) | Fold change in IC50 (IC50 [Drug + Cobicistat]/IC50 [Drug]) (SK-N-FI) | other results |
| --- | --- | --- | --- | --- | --- | --- | --- | --- | --- | --- | --- | --- | --- | --- | --- | --- | --- | --- | --- | --- | --- |
| CC(=O)O[C@@]12CO[C@@H]1C[C@H](O)[C@@]1(C)C(=O)[C@H](O)C3=C(C)[C@@H](OC(=O)[C@H](O)[C@@H](NC(=O)OC(C)(C)C)c4ccccc4)C[C@@](O)([C@@H](OC(=O)c4ccccc4)[C@H]21)C3(C)C [docetaxel] | 7.7 fold | 2.2 fold | 1.7 fold | 2.0 fold | 3.5 fold | 2.3 fold | 5.0 fold | 4.2 fold | 2.7 fold | 1.9 fold | 1.7 fold | 5.2 fold | 2.8 fold | 2.0 fold | 4.3 fold | 3.3 fold | 1.4 fold | 3.0 fold | 5.7 fold | 5.1 fold | Fold change in IC50 (IC50 [Drug + Cobicistat]/IC50 [Drug]) (C-33 A): 1.5 fold; Fold change in IC50 (IC50 [Drug + Cobicistat]/IC50 [Drug]) (BT-20): 1.7 fold; Fold change in IC50 (IC50 [Drug + Cobicistat]/IC50 [Drug]) (SHP-77): 3.5 fold; Fold change in IC50 (IC50 [Drug + Cobicistat]/IC50 [Drug]) (Hs 578T): 1.9 fold; Fold change in IC50 (IC50 [Drug + Cobicistat]/IC50 [Drug]) (SJCRH30): 4.1 fold; Fold change in IC50 (IC50 [Drug + Cobicistat]/IC50 [Drug]) (SW48): 1.6 fold; Fold change in IC50 (IC50 [Drug + Cobicistat]/IC50 [Drug]) (SW948): 3.5 fold; Fold change in IC50 (IC50 [Drug + Cobicistat]/IC50 [Drug]) (Daoy): 6.4 fold; Fold change in IC50 (IC50 [Drug + Cobicistat]/IC50 [Drug]) (COLO 205): 3.9 fold; Fold change in IC50 (IC50 [Drug + Cobicistat]/IC50 [Drug]) (A388): 6.0 fold |
| CC[C@]1(O)C[C@H]2CN(CCc3c([nH]c4ccccc34)[C@@](C(=O)OC)(c3cc4c(cc3OC)N(C=O)[C@H]3[C@@](O)(C(=O)OC)[C@H](OC(C)=O)[C@]5(CC)C=CCN6CC[C@]43[C@@H]65)C2)C1 [vincristine] | 4.1 fold | 4.0 fold | 2.1 fold | 3.3 fold | 3.6 fold | 3.3 fold | 3.1 fold | 3.6 fold | 2.0 fold | 1.4 fold | 2.8 fold | 4.2 fold | 2.1 fold | 3.1 fold | 3.5 fold | 3.8 fold | 2.9 fold | 3.5 fold | 4.4 fold | 2.7 fold | Fold change in IC50 (IC50 [Drug + Cobicistat]/IC50 [Drug]) (C-33 A): 2.7 fold; Fold change in IC50 (IC50 [Drug + Cobicistat]/IC50 [Drug]) (BT-20): 3.2 fold; Fold change in IC50 (IC50 [Drug + Cobicistat]/IC50 [Drug]) (SHP-77): 2.6 fold; Fold change in IC50 (IC50 [Drug + Cobicistat]/IC50 [Drug]) (Hs 578T): 2.8 fold; Fold change in IC50 (IC50 [Drug + Cobicistat]/IC50 [Drug]) (SJCRH30): 3.5 fold; Fold change in IC50 (IC50 [Drug + Cobicistat]/IC50 [Drug]) (SW48): 2.7 fold; Fold change in IC50 (IC50 [Drug + Cobicistat]/IC50 [Drug]) (SW948): 3.5 fold; Fold change in IC50 (IC50 [Drug + Cobicistat]/IC50 [Drug]) (Daoy): 4.6 fold; Fold change in IC50 (IC50 [Drug + Cobicistat]/IC50 [Drug]) (COLO 205): 4.0 fold; Fold change in IC50 (IC50 [Drug + Cobicistat]/IC50 [Drug]) (A388): 3.7 fold |
| Cc1nc(Nc2ncc(C(=O)Nc3c(C)cccc3Cl)s2)cc(N2CCN(CCO)CC2)n1 [dasatinib] | 2.3 fold | 1.6 fold | 1.1 fold | 1.7 fold | 2.1 fold | 1.0 fold | 1.2 fold | 2.2 fold | 1.4 fold | 3.4 fold | 2.1 fold | 2.6 fold | 2.6 fold | 1.1 fold | 4.0 fold | 2.9 fold | 1.5 fold | 3.8 fold | 2.2 fold | 2.0 fold | Fold change in IC50 (IC50 [Drug + Cobicistat]/IC50 [Drug]) (C-33 A): 1.2 fold; Fold change in IC50 (IC50 [Drug + Cobicistat]/IC50 [Drug]) (BT-20): 1.4 fold; Fold change in IC50 (IC50 [Drug + Cobicistat]/IC50 [Drug]) (SHP-77): 1.4 fold; Fold change in IC50 (IC50 [Drug + Cobicistat]/IC50 [Drug]) (Hs 578T): 2.5 fold; Fold change in IC50 (IC50 [Drug + Cobicistat]/IC50 [Drug]) (SJCRH30): 1.4 fold; Fold change in IC50 (IC50 [Drug + Cobicistat]/IC50 [Drug]) (SW48): 2.2 fold; Fold change in IC50 (IC50 [Drug + Cobicistat]/IC50 [Drug]) (SW948): 1.2 fold; Fold change in IC50 (IC50 [Drug + Cobicistat]/IC50 [Drug]) (Daoy): 3.2 fold; Fold change in IC50 (IC50 [Drug + Cobicistat]/IC50 [Drug]) (COLO 205): 1.2 fold; Fold change in IC50 (IC50 [Drug + Cobicistat]/IC50 [Drug]) (A388): 1.9 fold |
